Data set [1] addresses LeCCD1a (Solanum lycopersicum, UniProt Q6E4P5). The data set can be described thus: In vitro LeCCD1a enzyme assay (recombinant cell-free extract, colourimetric, apo-8′-carotenal substrate). Type of data set: biochemical, tomato (Solanum lycopersicum). Conditions: for IC50 / LeCCD1a (9,10/9′,10′) Inhibition @ 100 μM (%): E. coli cell extract with recombinant CCD; for IC50: read-out: LeCCD1a (9,10/9′,10′) IC50; for inhibition at 100 µM: read-out: LeCCD1a (9,10/9′,10′) Inhibition @ 100 μM (%); for LeCCD1a (9,10/9′,10′) Inhibition @ 100 μM (%): 100 μM inhibitor. As to the method: In vitro LeCCD1a enzyme assay—We over-expressed LeCCD1a in E. coli, as a GST-fusion protein (supplemental methods). The in vitro assay of LeCCD1a was based on reported methods (37), and was carried out in a 200 μl total volume in a 96-well microtitre plate, with the signal detected at 485 nm. To prepare substrate solution for each assay, 5 μl of 4% (w/v in ethanol) apo-8′-carotenal (Sigma) was mixed with 25 μl of 4% (w/v in ethanol) β-octylglucoside (Sigma), the ethanol was then evaporated under nitrogen, and the residue dissolved in 150 μl PBS buffer containing 10 mM sodium ascorbate by incubation at 20° C. for 30 min. 50 μl of cell-free extract containing recombinant LeCCD1a was added, and the reactions monitored over 30 min at 20° C.
(§1) For the production of cell-free extracts of LeCCD1a and LeNCED1, cultures were grown to an OD of 0.6 at 37° C., then isopropyl β-D-1-thiogalactopyranoside (IPTG) was added to 0.2 mM and the cultures grown overnight at 20° C. The cells (200 ml cultures) were harvested by centrifugation (5000 rpm, 10 min) and the pellet re-suspended in 4 ml PBS, 0.1% Triton-X 100. Lysozyme was added to a final concentration of 25 μg ml^−1 and the solution incubated at room temperature for 15 min before sonication (3×30 s at 18Ω) on ice. The lysate was then centrifuged (13000 rpm, 15 min, 4° C.) and the supernatant used for the assay.
(§2) Specificity of inhibition in vitro for tomato genes LeNCED1 and LeCCD1a—In order to screen the inhibitors against enzymes which cleave carotenoids at the 9,10 position, we used the recombinant tomato LeCCD1a protein (44), because this type of enzyme can be studied using an in vitro colourimetric assay with β-apo-8′-carotenal as substrate (37). To establish the specificity of the inhibitors, they were also tested against the tomato LeNCED1 recombinant protein which cleaves 9-cis carotenoids at the 11,12 position (45). For this enzyme, the cleavage reaction was monitored by C18 reverse phase HPLC, using 9′-cis-neoxanthin as substrate.

Data set [2] has as its system whole Arabidopsis plants. The data set can be described thus: Shoot branching in whole Arabidopsis plants grown in agar. Type of data set: in vivo. Conditions: for unintended effects on whole Arabidopsis plants: applied to whole plants; for branching phenotype of whole plants (in words): plants grown under sterile conditions in agar. As to the method: Branching phenotypes of Arabidopsis plants grown in agar media for 45 days supplemented with inhibitor D6. Images are shown: (a) Col-0 (WT) without inhibitor; (b) max3-9 mutant without inhibitor; (c) Col-0 with 100 μM D6. The numbers (d) of rosette branches were quantified. Error bars represent standard error of the mean, n=6 to 12.
Stimulation of shoot branching in whole Arabidopsis plants—Inhibitors were also applied to Arabidopsis whole plants grown under sterile conditions in agar. […] Inhibitor treated plants were intermediate (mean of approximately 2 branches) and so partially mimicked max3-9 (FIG. 6d).

Data set [3] addresses T1, LeNCED1 (Solanum lycopersicum, UniProt O24023).
T1 construct: made in house; host or cells: E. coli Rosetta (DE3); crude cell-free extract
Kind of data set: In vitro NCED enzyme assay (recombinant LeNCED1 cell-free extract, HPLC, 9′-cis-neoxanthin substrate). Type of data set: biochemical, tomato. To be noted: for LeNCED1 (11,12) Inhibition @ 100 μM (%): 100 μM inhibitor, E. coli cell extract with recombinant CCD. As to the method:
In vitro NCED enzyme assay—We over-expressed LeNCED1 in E. coli, as an N-terminal His6-fusion protein (supplemental methods). Cell-free extract containing recombinant LeNCED1 was prepared in 100 mM bis-tris buffer (pH 6.7). 15 μl extract was pre-activated by addition of iron(II) sulphate (20 mM, 1 μl) and ascorbic acid (20 mM, 1 μl) on ice for 2 min, prior to use. This aliquot of enzyme was then added to an assay (150 μl total volume) containing 100 mM bis-tris buffer (pH 6.7), 0.05% v/v Triton X-100, 1.0 mg/ml catalase, and 3 μg 9′-cis-neoxanthin. The 9′-cis-neoxanthin substrate was prepared as described in supplemental methods. The enzyme assay was incubated for 15 min in the dark at 20° C. Water (700 μl) was then added, and the products extracted with ethyl acetate (3×1 ml). The organic solvent was removed at reduced pressure, the residue was dissolved in methanol (200 μl), and then 100 μl was injected onto a Phenomenex C18 reverse phase HPLC column, and a gradient of 5-10% methanol in acetonitrile/0.05% triethylamine was applied at 0.5 ml/min over 20 min, detecting at 440 nm. NCED inhibition assays contained 1-100 μM inhibitor; inhibition was calculated from the product formation after 15 min, compared to a control assay with no inhibitor present.
as §1, §2

Data set [4] relates to LeCCD1a. The data set can be described thus: In vivo enzyme assay in β-carotene-producing E. coli expressing LeCCD1a. It counts as cell-based, Solanum lycopersicum. To be noted: 100 μM inhibitor, 16 hours; FIG. 4. From the text:
In vivo enzyme assays in E. coli—The genes of interest (supplemental Table S1) were cloned into the vector pET30c (Novagen) fused directly to the initial ATG codon with no tag, or into pGEX-4T such that the gene was fused to an N-terminal GST tag. All genes were full length except AtCCD7, which had the chloroplast signal sequence removed (supplemental methods). […] Therefore, this construct was used in subsequent assays. The plasmids were transferred to the E. coli expression strain BL21(DE3), harbouring pAC-BETA (38), and therefore producing β-carotene.
For each inhibitor assay, 2.5 ml LB media with the appropriate antibiotics (25 μg ml^−1 chloramphenicol and 50 μg ml^−1 kanamycin or 100 μg ml^−1 ampicillin) and 2.5 μM IPTG, was prepared. Inhibitors (0.1 M in 100% ethanol) were added to the media to a final concentration of 100 μM. The media was then inoculated with 0.25 ml of overnight culture (grown at 37° C. with the appropriate antibiotics) and incubated with shaking (200 rpm) at 28° C. for 16 hours. One ml of culture was harvested by microcentrifugation and resuspended thoroughly in 1 ml ethanol containing 0.2% Triton X-100. After vortexing, the extract was incubated at room temperature in the dark for 3 hours, again vortexed and then spun in a microcentrifuge for 5 min at 13000 rpm. The supernatant was removed and the O.D.453-O.D.550 was measured. The amount of β-carotene was calculated using a standard curve generated from a dilution series of β-carotene (Sigma) in ethanol with 0.2% Triton X-100; the absolute levels of β-carotene are shown in FIG. 8. The relative inhibition was calculated by the equation: (Ci−Cc)/(C1−Cc)×100, where Ci is the carotenoid level with inhibitor and CCD present, Cc is the level with CCD but without the inhibitor and C1 is the level in a strain where lacZ is expressed instead of the CCD, and no inhibitor is present. Thus the increase in β-carotene due to inhibition of the CCD […] was expressed relative to the maximum possible β-carotene content when CCD is absent (C1−Cc).
In vivo activity of inhibitors applied to E. coli strains expressing CCDs—Coloured E. coli strains that produce various carotenoids can be constructed by expression of enzymes for carotenoid synthesis (26). Upon co-expression of the appropriate CCD, the bacteria lose their colour due to cleavage of the carotenoids to colourless products (4,6,27). This technique was employed here to further explore the specificity of inhibitors, and to test their activity in vivo. The level of carotenoid in each CCD-expressing strain was compared to the level of the carotenoid in a control strain producing β-carotene but lacking any CCD gene. The difference in the carotenoid levels gave a measure of CCD activity, and inhibition of this activity was measured by addition of inhibitors to the growing medium.
The inhibitors were tested against four β-carotene-producing E. coli strains (supplemental Table S1). Three of the strains expressed highly divergent CCDs that cleave at the 9,10 position: AtCCD7 from Arabidopsis (21) and MmBCO2 from mouse (6) which both cleave at a single site (9,10 or 9′,10′ but not both), and the tomato enzyme LeCCD1a (44) which cleaves at both sites in the same substrate molecule (9,10/9′,10′ activity). The fourth strain expressed another mouse CCD, MmBCO1 (47), which cleaves centrally at 15,15′. […]

This note sets out measurements from patent US9210928B2, “Plant development control composition” (Syngenta Crop Protection, LLC, priority 2008, dated 2015).

Structures are written as SMILES. “Also recorded” adds a separate entry of the source.

T1 sequence (O24023 17-605): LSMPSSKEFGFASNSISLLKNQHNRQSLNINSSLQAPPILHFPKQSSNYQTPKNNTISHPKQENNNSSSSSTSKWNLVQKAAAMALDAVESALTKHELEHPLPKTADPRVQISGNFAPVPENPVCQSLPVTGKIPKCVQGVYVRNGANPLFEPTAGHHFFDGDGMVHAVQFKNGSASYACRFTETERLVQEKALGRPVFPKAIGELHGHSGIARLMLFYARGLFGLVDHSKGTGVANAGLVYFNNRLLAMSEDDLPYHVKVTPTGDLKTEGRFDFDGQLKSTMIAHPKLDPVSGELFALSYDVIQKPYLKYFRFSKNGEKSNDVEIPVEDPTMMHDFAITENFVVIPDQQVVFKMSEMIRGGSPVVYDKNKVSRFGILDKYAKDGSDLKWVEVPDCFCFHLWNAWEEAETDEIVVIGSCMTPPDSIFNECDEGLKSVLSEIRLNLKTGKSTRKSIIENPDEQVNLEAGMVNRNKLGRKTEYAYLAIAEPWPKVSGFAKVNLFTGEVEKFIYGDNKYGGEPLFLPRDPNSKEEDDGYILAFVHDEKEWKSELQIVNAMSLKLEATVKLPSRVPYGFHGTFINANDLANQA
Chain of LeCCD1a (Solanum lycopersicum, UniProt Q6E4P5) (Q6E4P5 1-545): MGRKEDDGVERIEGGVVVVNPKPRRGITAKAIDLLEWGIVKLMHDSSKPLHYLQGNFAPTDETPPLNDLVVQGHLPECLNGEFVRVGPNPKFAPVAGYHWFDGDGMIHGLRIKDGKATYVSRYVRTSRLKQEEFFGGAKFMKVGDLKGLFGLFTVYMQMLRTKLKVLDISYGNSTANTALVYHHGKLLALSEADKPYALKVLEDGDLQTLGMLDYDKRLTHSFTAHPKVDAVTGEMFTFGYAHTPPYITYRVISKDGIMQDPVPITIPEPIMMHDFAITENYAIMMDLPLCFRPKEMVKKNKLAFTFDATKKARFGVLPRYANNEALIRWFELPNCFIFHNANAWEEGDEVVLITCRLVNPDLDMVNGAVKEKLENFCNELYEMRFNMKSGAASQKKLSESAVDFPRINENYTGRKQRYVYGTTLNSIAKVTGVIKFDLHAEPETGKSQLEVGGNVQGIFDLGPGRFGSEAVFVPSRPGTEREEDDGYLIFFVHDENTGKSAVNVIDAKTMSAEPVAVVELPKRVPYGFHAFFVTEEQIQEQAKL

As for `O=C(Cc1ccc(O)cc1)N(O)Cc1ccc(F)cc1` [Compound D2, N-(4-fluorobenzyl)-4-hydroxyphenylacetyl hydroxamic acid], in data set [1], the IC50 is 800 to 900 nM and the inhibition at 100 µM is over 95%. Besides, in data set [2], the “unintended effects on whole Arabidopsis plants” value (from here on “unintended effects”) is “without negative unintended effects on whole plants” and the “branching phenotype of whole plants (in words)” value (from here on “branching phenotype”) is reported as “bushy appearance”.
With `O=C(Cc1ccc(O)c(O)c1)N(O)Cc1ccc(F)cc1` [Compound D3, N-(4-fluorobenzyl)-3,4-dihydroxyphenylacetyl hydroxamic acid], in data set [1], the “inhibition of LeCCD1 in vitro (in words)” value is “high levels of inhibition of LeCCD1; also recorded: good inhibitors of the 9,10 enzymes in vitro”, the IC50 is 800 to 900 nM and the inhibition at 100 µM was over 95%. For the same molecule, in data set [3], the “inhibition of LeNCED1 in vitro (in words)” value is recorded as “little or no inhibition of LeNCED1”. The “unintended effects” value in data set [2] is recorded as “negative effects on growth”.
For `COc1ccc(CC(=O)N(O)Cc2ccccc2)cc1OC` [Compound D5, N-benzyl-3,4-dimethoxyphenylacetyl hydroxamic acid], the inhibition at 100 µM in data set [1] is over 95%. Moreover, in data set [4], the “relative inhibition of LeCCD1a in E. coli (in words)” value is listed as “relatively weaker inhibition activity”. Besides, in data set [2], the “unintended effects” value is “without negative unintended effects on whole plants” and the “branching phenotype” value was “bushy appearance; also recorded: largest effect on whole Arabidopsis plants, giving the greatest number of side branches”.
Turning to `COc1ccc(CC(=O)N(O)Cc2ccc(F)cc2)cc1OC` [Compound D6, N-(4-fluorobenzyl)-3,4-dimethoxyphenylacetyl hydroxamic acid], the inhibition at 100 µM in data set [1] was over 95%. Besides, the “relative inhibition of LeCCD1a in E. coli (in words)” value in data set [4] is “relatively weaker inhibition activity”. For the same molecule, in data set [2], the “unintended effects” value was “without negative unintended effects on whole plants” and the “branching phenotype” value is “bushy appearance; also recorded: largest effect on whole Arabidopsis plants, giving the greatest number of side branches”.
On to `COc1ccc(CCC(=O)N(O)Cc2ccccc2)cc1OC` [Compound D8, N-benzyl-3,4-dimethoxyphenylpropionyl hydroxamic acid], for which the “LeCCD1a (9,10/9′,10′) Inhibition @ 100 μM (%)” value in data set [1] is given as 61%. In data set [3], the “inhibition of LeNCED1 in vitro (in words)” value is recorded as “greatest inhibition of NCED in vitro; also recorded: best 11,12 inhibitor” and the “LeNCED1 (11,12) Inhibition @ 100 μM (%)” value was 40%.
On to `COc1ccc(CCC(=O)N(O)Cc2ccccc2)cc1` [Compound D9, N-benzyl-4-methoxyphenylpropionyl hydroxamic acid], for which, in data set [1], the inhibition at 100 µM is over 95%.
Turning to `CCCCCCCCN(O)C(=O)CCc1ccc(OC)c(OC)c1` [Compound D10, N-octyl-3,4-dimethoxyphenylpropionyl hydroxamic acid], the “LeCCD1a (9,10/9′,10′) Inhibition @ 100 μM (%)” value in data set [1] is reported as 65%. Further, the “LeNCED1 (11,12) Inhibition @ 100 μM (%)” value in data set [3] was found to be 14%.
For the molecule `CCCCCCCCN(O)C(=O)CCc1ccc(OC)cc1` [Compound D11, N-octyl-4-methoxyphenylpropionyl hydroxamic acid], the “LeCCD1a (9,10/9′,10′) Inhibition @ 100 μM (%)” value in data set [1] was determined as 53%. The “LeNCED1 (11,12) Inhibition @ 100 μM (%)” value in data set [3] is reported as 15%.
Regarding `COc1ccc(C=CC(=O)NO)cc1OC` [Compound D12, 3,4-Dimethoxyphenylpropenoyl hydroxamic acid], in data set [1], the “LeCCD1a (9,10/9′,10′) Inhibition @ 100 μM (%)” value was found to be 26%. In addition, the “LeNCED1 (11,12) Inhibition @ 100 μM (%)” value in data set [3] is given as 11%.
As to `COc1ccc(C=CC(=O)NO)cc1` [Compound D13, 4-Methoxyphenylpropenoyl hydroxamic acid], in data set [1], the “LeCCD1a (9,10/9′,10′) Inhibition @ 100 μM (%)” value worked out at 46%. Also, the “LeNCED1 (11,12) Inhibition @ 100 μM (%)” value in data set [3] is recorded as 13%.
In the case of `COc1ccc(C(=O)N(O)Cc2ccc(F)cc2)cc1OC` [Compound F4, N-(4-fluorobenzyl)-3,4-dimethoxybenzoyl hydroxamic acid], the “LeCCD1a (9,10/9′,10′) Inhibition @ 100 μM (%)” value in data set [1] was 0%. In data set [3], the “LeNCED1 (11,12) Inhibition @ 100 μM (%)” value turned out to be 0%.
